The values below come from patent publication US11926583B2, “Stabilized 1, 25-dihydroxyvitamin D2 and method of making same” (CYTOCHROMA INC., priority 2008, dated 2024).

A short description of this series: Accelerated stability testing at 60° C., purity by HPLC. Format: physicochemical. As to conditions: for Purity (absolute %) / Purity (% of initial amount): At 60° C. How it is done:
The HPLC analysis can suitably follow the parameters in Table 2 below.
Samples of stabilized 1,25-dihydroxyvitamin D2 according to Example 1 and commercially-obtained 1,25-dihydroxyvitamin D2 (SAFC, Madison, Wis. USA) made by crystallization from methyl formate were placed in a 60° C. oven in several 2 ml amber vials with Teflon-lined caps. Samples were taken out at different time points and purity was checked by HPLC according to Example 1. The results are presented in Tables 3 and 4 below and in FIGS. 1 and 2. […] The stabilized material prepared according to the Example 1 will clearly have advantage when any heat is required during formulation.

As for `C=C1/C(=C\C=C2/CCC[C@]3(C)[C@@H]([C@H](C)/C=C/[C@H](C)C(C)(C)O)CC[C@@H]23)C[C@@H](O)C[C@@H]1O` [Commercial, 1,25-dihydroxyvitamin D2], the “Purity (absolute %)” value (0 h) is 96.80%; the “Purity (absolute %)” value (4 h) worked out at 95.18%; the “Purity (absolute %)” value (8 h) turned out to be 94.98%; the “Purity (absolute %)” value (16 h) is recorded as 94.69%; the “Purity (absolute %)” value (24 h) is 93.98%; the “Purity (absolute %)” value (48 h) was 93.86%. The “Purity (absolute %)” value (72 h) amounted to 93.82%. Besides, the “Purity (% of initial amount)” value (4 h) came to 98.33%; the “Purity (% of initial amount)” value (8 h) came to 98.12%; the “Purity (% of initial amount)” value (16 h) was 97.82%; the “Purity (% of initial amount)” value (24 h) worked out at 97.09%; the “Purity (% of initial amount)” value (48 h) amounted to 96.97%; the “Purity (% of initial amount)” value (72 h) is listed as 96.92%. Also, the “Purity (% of initial amount)” value (Initial %) was found to be 100%.
For `C=C1/C(=C\C=C2/CCC[C@]3(C)[C@@H]([C@H](C)/C=C/[C@H](C)C(C)(C)O)CC[C@@H]23)C[C@@H](O)C[C@@H]1O` [Example 1, 1,25-dihydroxyvitamin D2], the “Stability compared to commercially available material containing residual methyl formate” value (60° C., up to 72 hours) is “surprisingly more stable”. Besides, the “Purity (absolute %)” value is, setting by setting: (0 h) 99.40%; (4 h) 99.38%; (8 h) 99.42%; (16 h) 99.33%; (24 h) 99.42%; (48 h) 99.31%. The “Purity (absolute %)” value (72 h) is listed as 98.89%. For the same molecule, the “Purity (% of initial amount)” value runs as follows: (4 h) 99.98%; (8 h) 100%; (16 h) 99.93%; (24 h) 100%; (48 h) 99.90%; (72 h) 99.50%.
